# Measurements taken from patent publication US9533969B2, “Materials and method for inhibiting replication protein A and uses thereof” (Indiana University Research and Technology Corp., priority 2010, dated 2017).
# Tests used:
# Human RPA = Human RPA (Homo sapiens (Human), UniProt P27694); experiment: EMSA of inhibition of RPA binding to ssDNA; conditions: for IC50: 25 nM RPA, 34-base DNA, 4 parameter logistic fit, read-out: IC50 (μM) In vitro
# Experimental: Small molecule inhibitors were obtained from ChemDiv and resuspended in DMSO. Compound TDLR-505 was independently synthesized and structure confirmed by mass spectrometry analysis. Human RPA was purified using an E. coli over expression system as previously described (7). EMSAs were performed in 20 μL reactions containing 25 nM RPA, 25 nM 5′[^32P]-labeled 34-base […] DNA as previously described (7). The final concentration of DMSO was 1%.
# (§1) Referring now to TABLE 1, the in vitro IC50 was determined by EMSA analysis as described in FIG. 1A. The cellular IC50 value was determined by treating H460 cells with the indicated compounds and analyzing annexinV/PI staining as described in Methods. The in vitro and cellular data was analyzed using standard 4 parameter logistic-curve. The IC50 values and standard error of the fit were determined from this analysis.
# Referring now to FIGS. 2C, D and E, EMSA analysis of compound TDLR-505, briefly, increasing concentrations of compound TDRL-505 were pre-incubated with RPA and DNA binding activity was assessed via EMSA using a 34-base ssDNA substrate. Referring now to FIG. 2D, the average and standard deviation of each point are presented. The data was fit to a standard 4 parameter logistic curve with an N=4.
# H460 NSCLC cell line = experiment: Annexin V/PI flow cytometry, induction of cell death; type: cell-based, human; conditions: H460 cells; for IC50: Homo sapiens, NCI-H460, 48 hour exposure, annexinV/PI staining, read-out: IC50 (μM) Cellular
# Experimental: H460 cells were analyzed for apoptosis using an Annexin V-FITC/Propidium iodide (PI) Vybrant Apoptosis Assay Kit (Invitrogen), according to manufacturer's instructions. Cells were plated at a density of 1×10^4 cells per cm^2 and allowed to adhere for 24 hours and then treated with compound TDLR-505 for 48 hours. Following plating and treatment of H460 cells as described above, adherent and non-adherent cells were collected, processed, and analyzed on a BD FACScan flow cytometer. Data was analyzed using WinMDI software (http://facs.scripps.edu/software.html). Cell cycle analysis was performed by PI staining Briefly, cells were plated and treated with compound collected and then washed twice with PBS-EDTA supplemented with 1% BSA. Cells were fixed in 70% EtOH at −20° C. while vortexing followed by incubation on ice for 30 minutes. Cells were then collected and stained with PI solution (10 μg/mL PI and 25 μg/mL RNaseA in PBS-EDTA supplemented with 1% BSA). Cells were analyzed on a Becton Dickinson FACScan flow cytometer. Cells were gated and analyzed on a histogram with events plotted against the FL2-A parameter. Cell cycle distribution was analyzed using ModFit software. G2 arrest was induced by treatment with 0.8 μg/mL nocodazole for 12 hours (10). Cells were then washed with PBS and treated with either vehicle or compound TDLR-505 (100 μM). Cells were harvested and analyzed for cell cycle distribution as described above.
# as §1
# Referring now to FIGS. 4A, 4B, 4C and 4D, the effects of compound TDRL-505 on induction of cell death and cell cycle progression in a H460 NSCLC cell line was measured. Briefly, H460 cells were treated with compound TDRL-505 for 48 hours and analyzed for cell viability via staining with AnnexinV/PI and presented as dot plots (see FIG. 3A). Referring now to FIG. 4B, the data from FIG. 4A was quantified and the percentage of Annexin-/PI-cells (lower left quadrant), indicating live cells, was calculated. The average±SD (N=4) are presented and the data was fit to a 4-parameter logistic curve.
# Sequence of Human RPA (P27694 whole entry): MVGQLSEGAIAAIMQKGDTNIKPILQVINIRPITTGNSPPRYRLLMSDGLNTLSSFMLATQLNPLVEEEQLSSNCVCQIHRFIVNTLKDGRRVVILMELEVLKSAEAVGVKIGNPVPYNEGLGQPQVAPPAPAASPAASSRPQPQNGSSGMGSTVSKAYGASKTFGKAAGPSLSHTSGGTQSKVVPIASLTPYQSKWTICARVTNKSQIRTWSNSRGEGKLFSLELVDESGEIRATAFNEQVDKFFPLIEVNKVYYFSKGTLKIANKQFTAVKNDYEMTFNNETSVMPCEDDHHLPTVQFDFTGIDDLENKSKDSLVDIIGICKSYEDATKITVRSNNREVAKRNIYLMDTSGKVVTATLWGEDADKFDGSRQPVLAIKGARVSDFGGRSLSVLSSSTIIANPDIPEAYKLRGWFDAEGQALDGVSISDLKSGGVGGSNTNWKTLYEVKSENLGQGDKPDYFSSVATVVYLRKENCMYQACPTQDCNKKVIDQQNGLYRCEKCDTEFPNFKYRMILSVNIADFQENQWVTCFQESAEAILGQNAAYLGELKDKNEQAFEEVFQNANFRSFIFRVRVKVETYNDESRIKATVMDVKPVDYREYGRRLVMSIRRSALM
# Sequence of Human RPA (P15927 whole entry partner): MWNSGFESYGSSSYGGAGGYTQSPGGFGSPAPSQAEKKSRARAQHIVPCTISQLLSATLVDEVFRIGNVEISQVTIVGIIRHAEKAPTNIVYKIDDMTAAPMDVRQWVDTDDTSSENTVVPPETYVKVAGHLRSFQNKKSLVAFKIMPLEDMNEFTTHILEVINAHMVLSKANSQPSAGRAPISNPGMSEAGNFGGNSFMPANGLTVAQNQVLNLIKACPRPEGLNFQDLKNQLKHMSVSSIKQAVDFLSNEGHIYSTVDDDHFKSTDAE
# Sequence of Human RPA (P35244 whole entry partner): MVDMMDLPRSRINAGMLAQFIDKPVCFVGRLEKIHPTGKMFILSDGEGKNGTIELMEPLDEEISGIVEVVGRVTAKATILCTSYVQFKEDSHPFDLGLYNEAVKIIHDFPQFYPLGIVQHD
Compound,IC50 (Human RPA),IC50 (H460 NSCLC cell line),"inhibition at 100 µM (Human RPA; 100 μM, read-out: inhibition at the highest concentration tested)",inhibition of RPA DNA binding (in words) (Human RPA; full length RPA heterotrimer),cellular activity (in words) (H460 NSCLC cell line)
COc1ccc(C2=NN(C(=O)CCC(=O)O)C(c3cn(-c4ccccc4)nc3-c3ccc(C)cc3)C2)cc1 (stereo not drawn) [TDRL-521],71.7 ± 33.9 µM,56.9 ± 6.7 µM,,,
Cc1ccc(-c2nn(-c3ccccc3)cc2C2CC(c3ccc(Br)cc3)=NN2C(=O)CCC(=O)O)cc1 (stereo not drawn) [TDRL-522],56.1 ± 6.7 µM,38 ± 32 µM,,,
COc1ccc(-c2nn(-c3ccccc3)cc2C2CC(c3ccc(Br)cc3)=NN2C(=O)CCC(=O)O)cc1 (stereo not drawn) [TDRL-523],> 100 µM,31 ± 5.2 µM,36%,minimal inhibition,modest cellular activity
